Patent US20240116912A1, “COMPOUNDS AND METHODS FOR MODULATING FXR” (Terns Pharmaceuticals, Inc., priority 2020, published 2024)
Where “and” joins values, the source holds several entries; their conditions need not be identical. Equal entries are not always repeated.

Columns and labels:
[1] = biological target: full length human FXR protein (Homo sapiens (Human), UniProt Q96RI1); assay: FXR cellular assay (FXR-SRCP β-gal enzyme fragment complementation in CHO-K1 cells, chemiluminescence); type: cell-based; conditions: CHO-K1 cells with SRCP-EA and ProLink-labeled FXR, 0-10 micromolar compound, 37° C. for 6h, read-out: EC50 FXR-cell Luminescence/
Outline: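 CHO-K1 cells stably expressing ProLink-tagged full-length FXR and SRCP-EA treated with compound (0-10 micromolar, 1% DMSO) for 6 h at 37 °C. Ligand-driven FXR-coactivator binding reconstitutes β-gal; chemiluminescence read after 1 h detection reagent at room temperature.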

[2] = biological target: ligand binding domain (LBD) of recombinant human FXR (Homo sapiens (Human), UniProt Q96RI1); assay: FXR cell free coactivator (SRC-1) recruitment assay, TR-FRET; conditions: FXR LBD (amino acids 244-476) with labeled SRC-1 domain, 25° C. for 60 minutes, activity relative to CDCA maximum; read-out: EC50 FXR- Biochemical TR-FRET/μM
Outline: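 Purified SF9-expressed FXR LBD (aa 244-476) was incubated with compounds (0-10 micromolar) and labeled SRC-1 interaction domain in TR-FRET coregulator buffer G, 60 min at 25° C, 1.2% DMSO. Activity at each concentration was taken as percent of maximal CDCA response to build dose-response curves.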

ligand binding domain (LBD) of recombinant human FXR, sequence (Q96RI1 254-486): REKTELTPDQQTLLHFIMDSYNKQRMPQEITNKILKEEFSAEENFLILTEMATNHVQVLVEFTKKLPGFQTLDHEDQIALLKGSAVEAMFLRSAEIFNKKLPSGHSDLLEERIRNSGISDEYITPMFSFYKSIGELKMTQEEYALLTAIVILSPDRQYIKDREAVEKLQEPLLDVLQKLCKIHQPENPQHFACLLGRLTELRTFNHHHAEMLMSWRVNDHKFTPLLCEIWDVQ
ligand binding domain (LBD) of recombinant human FXR, sequence (Q15788 whole entry partner, the tested form may be a part): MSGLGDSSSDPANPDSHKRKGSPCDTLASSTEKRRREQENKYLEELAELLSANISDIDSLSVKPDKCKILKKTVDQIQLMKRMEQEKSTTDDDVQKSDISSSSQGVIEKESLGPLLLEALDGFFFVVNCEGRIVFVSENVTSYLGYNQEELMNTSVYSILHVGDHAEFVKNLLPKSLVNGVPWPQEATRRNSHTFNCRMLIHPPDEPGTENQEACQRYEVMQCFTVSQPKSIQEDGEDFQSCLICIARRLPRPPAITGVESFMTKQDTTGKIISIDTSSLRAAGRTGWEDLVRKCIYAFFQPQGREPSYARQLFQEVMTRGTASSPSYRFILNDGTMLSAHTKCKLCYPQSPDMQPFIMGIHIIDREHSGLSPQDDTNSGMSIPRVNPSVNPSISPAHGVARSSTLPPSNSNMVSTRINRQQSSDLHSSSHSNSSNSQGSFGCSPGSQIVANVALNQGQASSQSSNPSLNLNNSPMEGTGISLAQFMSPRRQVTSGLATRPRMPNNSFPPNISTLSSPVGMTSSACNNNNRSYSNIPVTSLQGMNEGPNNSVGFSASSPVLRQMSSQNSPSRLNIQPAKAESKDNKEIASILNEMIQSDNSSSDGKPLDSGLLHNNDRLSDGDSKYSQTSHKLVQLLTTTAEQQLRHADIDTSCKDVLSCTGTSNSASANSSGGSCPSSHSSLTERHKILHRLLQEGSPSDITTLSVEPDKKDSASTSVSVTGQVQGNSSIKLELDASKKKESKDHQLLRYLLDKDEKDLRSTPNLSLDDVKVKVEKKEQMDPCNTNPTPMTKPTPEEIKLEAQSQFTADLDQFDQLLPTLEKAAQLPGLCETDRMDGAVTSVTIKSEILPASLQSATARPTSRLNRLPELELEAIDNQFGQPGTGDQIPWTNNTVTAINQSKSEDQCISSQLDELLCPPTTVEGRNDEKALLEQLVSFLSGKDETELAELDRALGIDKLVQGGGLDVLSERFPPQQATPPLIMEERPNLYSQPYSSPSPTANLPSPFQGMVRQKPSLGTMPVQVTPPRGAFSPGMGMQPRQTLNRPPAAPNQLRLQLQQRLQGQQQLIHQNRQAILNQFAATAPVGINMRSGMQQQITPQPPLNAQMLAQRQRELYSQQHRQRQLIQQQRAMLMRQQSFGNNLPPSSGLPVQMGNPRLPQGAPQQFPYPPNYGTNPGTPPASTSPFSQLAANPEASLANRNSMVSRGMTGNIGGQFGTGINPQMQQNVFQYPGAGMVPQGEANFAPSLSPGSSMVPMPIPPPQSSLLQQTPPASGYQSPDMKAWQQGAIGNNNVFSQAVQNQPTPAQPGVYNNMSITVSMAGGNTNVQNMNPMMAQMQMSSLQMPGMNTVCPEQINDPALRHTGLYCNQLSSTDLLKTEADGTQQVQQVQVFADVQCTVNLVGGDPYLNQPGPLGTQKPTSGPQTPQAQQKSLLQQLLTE
full length human FXR protein, sequence (Q96RI1 whole entry, the tested form may be a part): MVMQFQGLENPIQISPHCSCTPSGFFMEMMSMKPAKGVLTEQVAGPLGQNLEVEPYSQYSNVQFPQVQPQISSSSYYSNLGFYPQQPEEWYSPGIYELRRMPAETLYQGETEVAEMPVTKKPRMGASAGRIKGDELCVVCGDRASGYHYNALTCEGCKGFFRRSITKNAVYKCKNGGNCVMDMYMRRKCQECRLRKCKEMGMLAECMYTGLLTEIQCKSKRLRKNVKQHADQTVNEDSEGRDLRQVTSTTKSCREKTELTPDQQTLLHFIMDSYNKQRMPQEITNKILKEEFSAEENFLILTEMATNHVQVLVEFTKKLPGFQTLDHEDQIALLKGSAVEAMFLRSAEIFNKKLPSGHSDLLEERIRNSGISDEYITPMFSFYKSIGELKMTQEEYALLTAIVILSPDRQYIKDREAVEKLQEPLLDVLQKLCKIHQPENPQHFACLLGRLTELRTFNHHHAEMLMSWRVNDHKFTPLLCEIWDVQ

SMILES | EC50 [1] | EC50 [2]
O=c1cc(-c2ccc(N3CCC(OCc4c(-c5ccccc5OC(F)(F)F)noc4C4CC4)CC3)cc2)o[nH]1 [Example 52, 5-(4-(4-((5-cyclopropyl-3-(2-(trifluoromethoxy)phenyl)isoxazol-4-yl)methoxy)piperidin-1-yl)phenyl)isoxazol-3(2H)-one] | 1630 nM | 0.143 µM
O=c1[nH]c(-c2ccc(N3CCC(OCc4c(-c5c(Cl)cccc5Cl)noc4C4CC4)C(F)(F)C3)cc2)no1 (stereo not shown) [Example 53, 3-(4-(4-((5-cyclopropyl-3-(2,6-dichlorophenyl)isoxazol-4-yl)methoxy)-3,3-difluoropiperidin-1-yl)phenyl)-1,2,4-oxadiazol-5(4H)-one] | 94.3 nM | 0.009 µM
O=c1[nH]c(-c2ccc(N3CCC(OCc4c(-c5ccccc5OC(F)(F)F)noc4C4CC4)C(F)(F)C3)cc2)no1 (stereo not shown) [Example 54, 3-(4-(4-((5-cyclopropyl-3-(2-(trifluoromethoxy)phenyl)isoxazol-4-yl)methoxy)-3,3-difluoropiperidin-1-yl)phenyl)-1,2,4-oxadiazol-5(4H)-one] | 715 nM | 0.0376 µM
O=c1[nH]c(-c2ccc(N3CCC(OCc4c(-c5c(F)cccc5F)noc4C4CC4)C(F)(F)C3)cc2)no1 (stereo not shown) [Example 55, 3-(4-(4-((5-cyclopropyl-3-(2,6-difluorophenyl)isoxazol-4-yl)methoxy)-3,3-difluoropiperidin-1-yl)phenyl)-1,2,4-oxadiazol-5(4H)-one] | 852 nM | 0.174 µM
O=c1[nH]c(-c2ncc(N3CCC(OCc4c(-c5c(Cl)cccc5Cl)noc4C4CC4)CC3)s2)no1 [Example 56, 3-(5-(4-((5-cyclopropyl-3-(2,6-dichlorophenyl)isoxazol-4-yl)methoxy)piperidin-1-yl)thiazol-2-yl)-1,2,4-oxadiazol-5(4H)-one] | 887 nM | 0.0431 µM
O=c1[nH]nc(-c2ccc(N3CCC(OCc4c(-c5ccccc5OC(F)(F)F)noc4C4CC4)CC3)cc2)c(=O)[nH]1 [Example 57, 6-(4-(4-((5-cyclopropyl-3-(2-(trifluoromethoxy)phenyl)isoxazol-4-yl)methoxy)piperidin-1-yl)phenyl)-1,2,4-triazine-3,5(2H,4H)-dione] | 497 nM | 0.0847 µM
O=c1[nH]c(-c2cc(N3CCC(OCc4c(-c5c(Cl)cccc5Cl)noc4C4CC4)CC3)n[nH]2)no1 [Example 58, 3-(3-(4-((5-cyclopropyl-3-(2,6-dichlorophenyl)isoxazol-4-yl)methoxy)piperidin-1-yl)-1H-pyrazol-5-yl)-1,2,4-oxadiazol-5(4H)-one] | 11700 nM | 0.421 µM
O=c1cc(-c2ccc(N3CCC(OCc4c(-c5c(Cl)cccc5Cl)noc4C4CC4)CC3)nc2)o[nH]1 [Example 59, 5-(6-(4-((5-cyclopropyl-3-(2,6-dichlorophenyl)isoxazol-4-yl)methoxy)piperidin-1-yl)pyridin-3-yl)isoxazol-3(2H)-one] | 264 nM | 0.0179 µM
O=c1cc(-c2ccc(N3CCC(OCc4c(-c5ccccc5OC(F)(F)F)noc4C4CC4)CC3)nc2)o[nH]1 [Example 60, 5-(6-(4-((5-cyclopropyl-3-(2-(trifluoromethoxy)phenyl)isoxazol-4-yl)methoxy)piperidin-1-yl)pyridin-3-yl)isoxazol-3(2H)-one] | 779 nM | 0.104 µM
O=c1[nH]nc(-c2ccc(N3CCC(OCc4c(-c5ccccc5OC(F)(F)F)noc4C4CC4)CC3)nc2)o1 [Example 61, 5-(6-(4-((5-cyclopropyl-3-(2-(trifluoromethoxy)phenyl)isoxazol-4-yl)methoxy)piperidin-1-yl)pyridin-3-yl)-1,3,4-oxadiazol-2(3H)-one] | 1920 nM | 0.298 µM
O=c1cn[nH]c(=O)n1-c1ccc(N2CCC(OCc3c(-c4c(Cl)cccc4Cl)noc3C3CC3)CC2)cc1 [Example 62, 4-(4-(4-((5-cyclopropyl-3-(2,6-dichlorophenyl)isoxazol-4-yl)methoxy)piperidin-1-yl)phenyl)-1,2,4-triazine-3,5(2H,4H)-dione] | > 10000 nM and 4730 nM | 6.35 µM and 6.07 µM
O=c1[nH]c(-c2ccc(N3CCC(OCc4c(-c5c(F)cccc5F)noc4C4CC4)C(F)(F)C3)nc2)no1 (stereo not shown) [Example 63, 3-(6-(4-((5-cyclopropyl-3-(2,6-difluorophenyl)isoxazol-4-yl)methoxy)-3,3-difluoropiperidin-1-yl)pyridin-3-yl)-1,2,4-oxadiazol-5(4H)-one] | 2660 nM | 0.215 µM
O=c1[nH]c(-c2ccc(N3CCC(OCc4c(-c5ccccc5OC(F)(F)F)noc4C4CC4)C(F)(F)C3)nc2)no1 (stereo not shown) [Example 64, 3-(6-(4-((5-cyclopropyl-3-(2-(trifluoromethoxy)phenyl)isoxazol-4-yl)methoxy)-3,3-difluoropiperidin-1-yl)pyridin-3-yl)-1,2,4-oxadiazol-5(4H)-one] | 2310 nM | 0.07 µM
O=c1[nH]nc(-c2ccc(N3[C@@H]4CC[C@H]3C[C@@H](OCc3c(-c5ccccc5OC(F)(F)F)noc3C3CC3)C4)cc2)o1 [Example 65, 5-(4-((1R,3r,5S)-3-((5-cyclopropyl-3-(2-(trifluoromethoxy)phenyl)isoxazol-4-yl)methoxy)-8-azabicyclo[3.2.1]octan-8-yl)phenyl)-1,3,4-oxadiazol-2(3H)-one] | 954 nM | 0.0221 µM
O=c1[nH]c(-c2ccc(N3[C@@H]4CC[C@H]3C[C@@H](OCc3c(-c5ccccc5OC(F)(F)F)noc3C3CC3)C4)nc2)no1 [Example 66, 3-(6-((1R,3r,5S)-3-((5-cyclopropyl-3-(2-(trifluoromethoxy)phenyl)isoxazol-4-yl)methoxy)-8-azabicyclo[3.2.1]octan-8-yl)pyridin-3-yl)-1,2,4-oxadiazol-5(4H)-one] | 247 nM | 0.003 µM
O=c1[nH]nc(-c2ccc(N3[C@@H]4CC[C@H]3C[C@@H](OCc3c(-c5ccccc5OC(F)(F)F)noc3C3CC3)C4)cc2)c(=O)[nH]1 [Example 67, 6-(4-((1R,3r,5S)-3-((5-cyclopropyl-3-(2-(trifluoromethoxy)phenyl)isoxazol-4-yl)methoxy)-8-azabicyclo[3.2.1]octan-8-yl)phenyl)-1,2,4-triazine-3,5(2H,4H)-dione] | 65.7 nM | 0.0127 µM
O=c1[nH]nc(-c2ccc(N3[C@@H]4CC[C@H]3C[C@@H](OCc3c(-c5ccccc5OC(F)(F)F)noc3C3CC3)C4)nc2)o1 [Example 68, 5-(6-((1R,3r,5S)-3-((5-cyclopropyl-3-(2-(trifluoromethoxy)phenyl)isoxazol-4-yl)methoxy)-8-azabicyclo[3.2.1]octan-8-yl)pyridin-3-yl)-1,3,4-oxadiazol-2(3H)-one] | 168 nM | 0.0264 µM
O=c1cc(-c2ccc(N3[C@@H]4CC[C@H]3C[C@@H](OCc3c(-c5ccccc5OC(F)(F)F)noc3C3CC3)C4)nc2)o[nH]1 [Example 69, 5-(6-((1R,3r,5S)-3-((5-cyclopropyl-3-(2-(trifluoromethoxy)phenyl)isoxazol-4-yl)methoxy)-8-azabicyclo[3.2.1]octan-8-yl)pyridin-3-yl)isoxazol-3(2H)-one] | 57.6 nM | 0.0095 µM
Cn1nc(N2CCC(OCc3c(-c4c(Cl)cccc4Cl)noc3C3CC3)CC2)cc1-c1noc(=O)[nH]1 [Example 70, 3-(3-(4-((5-cyclopropyl-3-(2,6-dichlorophenyl)isoxazol-4-yl)methoxy)piperidin-1-yl)-1-methyl-1H-pyrazol-5-yl)-1,2,4-oxadiazol-5(4H)-one] | > 10000 nM | 0.233 µM
C[C@@H]1C[C@H](OCc2c(-c3c(Cl)cccc3Cl)noc2C2CC2)CCN1c1ccc(-c2noc(=O)[nH]2)cn1 [Example 71, 3-(6-((2R,4R)-4-((5-cyclopropyl-3-(2,6-dichlorophenyl)isoxazol-4-yl)methoxy)-2-methylpiperidin-1-yl)pyridin-3-yl)-1,2,4-oxadiazol-5(4H)-one] | 24.7 nM | 0.0021 µM
C[C@@H]1C[C@H](OCc2c(-c3ccccc3Cl)noc2C2CC2)CCN1c1ccc(-c2noc(=O)[nH]2)cn1 [Example 72, 3-(6-((2R,4R)-4-((3-(2-chlorophenyl)-5-cyclopropylisoxazol-4-yl)methoxy)-2-methylpiperidin-1-yl)pyridin-3-yl)-1,2,4-oxadiazol-5(4H)-one] | 54.9 nM | 0.0045 µM
C[C@@H]1C[C@H](OCc2c(-c3c(F)cccc3F)noc2C2CC2)CCN1c1ccc(-c2noc(=O)[nH]2)cn1 [Example 73, 3-(6-((2R,4R)-4-((5-cyclopropyl-3-(2,6-difluorophenyl)isoxazol-4-yl)methoxy)-2-methylpiperidin-1-yl)pyridin-3-yl)-1,2,4-oxadiazol-5(4H)-one] | 350 nM | 0.0476 µM
O=c1[nH]c(-c2ccc(N3CCC(OCc4c(-c5c(F)cccc5F)noc4C4CC4)CC3)nc2)no1 [Example 74, 3-(6-(4-((5-cyclopropyl-3-(2,6-difluorophenyl)isoxazol-4-yl)methoxy)piperidin-1-yl)pyridin-3-yl)-1,2,4-oxadiazol-5(4H)-one] | 1450 nM | 0.107 µM
